The values below come from PMC4955782 (Archives of biochemistry and biophysics, 2016).

Like-named read-outs stand apart in the source and are kept apart here.

For assay [1], the system named is tubulin. The conditions noted are these: reported by David et al.; cited from earlier work.
The test system of assay [2] is tubulin. The assay can be described thus: Polymer formation without GTP at 0 °C. The class given is biochemical, bovine. As to conditions: no GTP; for % tubulin in polymer ± SE: single compound 30 μM, 20 min, 1.0 mg/mL tubulin; for spiral formation (centrifugation study, Fig. 7A): 10 μM tubulin, concentrations up to 30 μM.
Assay [3] relates to tubulin. The assay can be described thus: Inhibition of MAP-dependent microtubule assembly. The class given is biochemical, bovine.
For assay [4], the target named is tubulin (Bos taurus, UniProt P81947+Q6B856). In words: Aberrant tubulin assembly. The conditions noted are these: for extent of aberrant assembly reaction (turbidity), % of its maximum: within 20 min at 0 °C, 10 μM compound, 10 μM tubulin, 0.6 M glutamate, 1.0 mM MgCl2, 50 μM GTP.
tubulin (Bos taurus, UniProt P81947+Q6B856), sequence (P81947 whole entry): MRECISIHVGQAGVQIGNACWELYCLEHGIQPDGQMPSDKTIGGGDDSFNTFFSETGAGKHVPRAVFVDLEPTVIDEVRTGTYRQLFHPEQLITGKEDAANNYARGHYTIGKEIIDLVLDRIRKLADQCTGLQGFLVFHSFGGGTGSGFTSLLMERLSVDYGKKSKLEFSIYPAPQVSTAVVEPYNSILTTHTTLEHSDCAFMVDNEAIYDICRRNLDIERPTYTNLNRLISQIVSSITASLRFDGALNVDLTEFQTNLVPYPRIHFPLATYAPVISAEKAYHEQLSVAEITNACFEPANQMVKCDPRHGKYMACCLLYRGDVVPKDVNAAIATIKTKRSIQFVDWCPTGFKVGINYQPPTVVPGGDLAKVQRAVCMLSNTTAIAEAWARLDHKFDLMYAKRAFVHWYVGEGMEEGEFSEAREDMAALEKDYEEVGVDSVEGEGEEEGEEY
tubulin (Bos taurus, UniProt P81947+Q6B856), sequence (Q6B856 whole entry): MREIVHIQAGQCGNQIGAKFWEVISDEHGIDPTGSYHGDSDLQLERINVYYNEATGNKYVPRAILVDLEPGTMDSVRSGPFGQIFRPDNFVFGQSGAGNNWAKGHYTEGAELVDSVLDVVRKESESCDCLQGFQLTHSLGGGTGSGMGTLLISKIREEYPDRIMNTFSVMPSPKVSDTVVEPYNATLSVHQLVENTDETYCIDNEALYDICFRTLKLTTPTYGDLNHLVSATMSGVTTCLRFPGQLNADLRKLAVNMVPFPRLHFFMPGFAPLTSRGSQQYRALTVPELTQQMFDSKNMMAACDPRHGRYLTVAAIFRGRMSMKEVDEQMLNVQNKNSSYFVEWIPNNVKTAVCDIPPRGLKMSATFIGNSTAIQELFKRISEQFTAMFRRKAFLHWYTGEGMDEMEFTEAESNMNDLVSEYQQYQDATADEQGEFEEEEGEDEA
Assay [5] has as its system tubulin. It is filed as binding, bovine. The conditions noted are these: for maximum stoichiometry of compound incorporation into aberrant polymer: 80 μM compound; for compound incorporated into induced polymers, as little as: substoichiometric reactions (abstract).
In the next assay the test system is αβ-tubulin dimer. In words: Binding of radiolabeled compounds to αβ-tubulin dimer. On the set-up: species or system bovine. The conditions noted are these: radiolabeled compound.
In the next assay the test system is cultured cells. As to conditions: cited from earlier work.
Where [6] appears, read: 5 μM compound, 10 μM tubulin, 22 °C, 30 min.
Where [7] appears, read: 10 μM radiolabeled ligand alone (Table 3).
[8] abbreviates: compound and tubulin equimolar (10 μM each).

For `COc1cc2cc(c1Cl)N(C)C(=O)C[C@H](OC(=O)[C@H](C)N(C)C(C)=O)[C@]1(C)O[C@H]1[C@H](C)[C@@H]1C[C@@](O)(NC(=O)O1)[C@H](OC)/C=C/C=C(\C)C2` [Maytansine], in the assay with tubulin [1], the “inhibition of (−)-rhazinilam aberrant assembly reaction” value is given as “inhibited”.

Take `N#Cc1c(-c2ccccc2)c(-c2ccccc2)nn(Cc2nn[nH]n2)c1=O` [NSC 608593]: the “% tubulin in polymer ± SE” value with tubulin [2] was 0 ± 1%.

Consider `Cc1nn(CC(=O)O)c(=O)c(C#N)c1-c1ccccc1` [NSC 608600], for which, in the assay on tubulin [3], the “effect on microtubule assembly” value is recorded as “no significant effect on microtubule assembly”.

Turning to `Cc1c(-c2ccccc2)nn(CC(=O)O)c(=O)c1C#N` [NSC 608602], the “effect on microtubule assembly” value with tubulin [3] is recorded as “no significant effect on microtubule assembly”.

For the molecule `N#Cc1c(-c2ccc(F)cc2)c(-c2ccc(F)cc2)nn(Cc2nn[nH]n2)c1=O` [NSC 613241], the “delay of aberrant assembly after addition of compound” value on tubulin [4] (0 °C, 0.6 M monosodium glutamate, 50 μM GTP, 1 mM MgCl2, 2% dimethyl sulfoxide) is recorded as “about 1 min”. In addition, the “extent of aberrant assembly reaction (turbidity), % of its maximum” value on tubulin [4] is 30–35%. For the same molecule, the “% of the tubulin in polymer pellet” value with tubulin [5] (setting [6]) is listed as 73%; with tubulin [5] (20 μM compound, 10 μM tubulin), “about 90%”. In addition, the “% tubulin recovered in pellet” value in the assay on tubulin [5] (10 μM [3H](−)-rhazinilam plus 80 μM nonradiolabeled inhibitor) came out at 89 ± 6.4%; with tubulin [5] (setting [7]), 72 ± 5.4%. Also, the “Ligand bound/tubulin in aberrant polymer ± SD” value in the assay with tubulin [5] (10 μM radiolabeled ligand alone, 22 °C, 30 min (Table 3)) is 0.15 ± 0.013. In the assay on tubulin [5] (40 μM compound, 10 μM tubulin), the “% of the tubulin in polymer” value is listed as about 100%. For the same molecule, the “stoichiometry of compound to tubulin in the pellets” value came out at 0.42 in the assay with tubulin [5] (40 μM compound, 10 μM tubulin) and 0.11 in the assay on tubulin [5] (setting [8]). Moreover, in the assay on tubulin [5] (10 μM tubulin), the “maximum stoichiometry of compound incorporation into aberrant polymer” value is 0.62. In addition, in the assay on tubulin [5], the “compound incorporated into induced polymers, as little as” value is recorded as 0.1–0.2 mol compound/mol of tubulin. Besides, in the assay on tubulin [2], the “spiral formation (centrifugation study, Fig. 7A)” value is listed as “minimal”. Further, the “% tubulin in polymer ± SE” value in the assay on tubulin [2] stood at 0 ± 2%. The “binding to the αβ-tubulin dimer” value with αβ-tubulin dimer is “unable to demonstrate binding”.

Consider `CC[C@]1(O)C[C@@H]2CN(CCc3c([nH]c4ccccc34)[C@@](C(=O)OC)(c3cc4c(cc3OC)N(C)[C@H]3[C@@](O)(C(=O)OC)[C@H](OC(C)=O)[C@]5(CC)C=CCN6CC[C@]43[C@@H]65)C2)C1` [Vinblastine], for which the “inhibition of (−)-rhazinilam aberrant assembly reaction” value with tubulin [1] is “inhibited”.

As to (−)-Rhazinilam [reference compound], the “extent of aberrant assembly reaction (turbidity), % of its maximum” value at tubulin [4] was “little or no change in turbidity”. Also, the “% of the tubulin in polymer pellet” value is on record as 53% in the assay on tubulin [5] (setting [6]) and “about 90%” with tubulin [5] (20 μM compound, 10 μM tubulin). Further, the figures for the “% tubulin recovered in pellet” value in the assay with tubulin [5] (10 μM [3H]NSC 613241 plus 80 μM nonradiolabeled inhibitor) and with tubulin [5] (setting [7]) were 95 ± 5.2% and 37 ± 5.1%, respectively. The “% of the tubulin in polymer” value in the assay with tubulin [5] (40 μM compound, 10 μM tubulin) is listed as about 100%. Moreover, the “stoichiometry of compound to tubulin in the pellets” value is on record as 0.47 in the assay on tubulin [5] (40 μM compound, 10 μM tubulin) and 0.13 in the assay with tubulin [5] (setting [8]). Further, the “maximum stoichiometry of compound incorporation into aberrant polymer” value with tubulin [5] (10 μM tubulin) is reported as 0.68. For the same molecule, in the assay with tubulin [5], the “compound incorporated into induced polymers, as little as” value is reported as 0.1–0.2 mol compound/mol of tubulin. Moreover, the “IC50 values in treated cells” value in the assay on cultured cells is “low μM range”. Also, the “spiral formation (centrifugation study, Fig. 7A)” value in the assay on tubulin [2] is “minimal”. For the same molecule, the “% tubulin in polymer ± SE” value with tubulin [2] is 0 ± 2%. Also, the “binding to the αβ-tubulin dimer” value in the assay with αβ-tubulin dimer is “unable to demonstrate binding”.
